From article PMC2748416 (Biochemistry, 2009)
Where two headings read alike, the source gives them in different places.

Experiments:
MshC D251N mutant [1] = molecular target: T1, MshC D251N mutant (Mycolicibacterium smegmatis, UniProt A0QZY0, D251N)
MshC D251N mutant [2] = molecular target: T1, MshC D251N mutant; experiment: Pre-steady state kinetics of cysteine adenylation; type: biochemical, Mycobacterium smegmatis; settings: read-out: Kd-ATP; first half reaction, fit to eq 9
MshC H55A mutant [3] = molecular target: T2, MshC H55A mutant (Mycolicibacterium smegmatis, UniProt A0QZY0, H55A); experiment: Pre-steady state kinetics of cysteine adenylation; type: biochemical, Mycobacterium smegmatis; settings: read-out: Kd-ATP; first half reaction, fit to eq 9
MshC T46V mutant [4] = molecular target: T3, MshC T46V mutant (Mycolicibacterium smegmatis, UniProt A0QZY0, T46V)
MshC H55A mutant [5] = molecular target: T2, MshC H55A mutant; settings: for Km: steady state, pH 7.8, 25 °C
MshC W227F mutant [6] = molecular target: T4, MshC W227F mutant (Mycolicibacterium smegmatis, UniProt A0QZY0, W227F)
WT MshC [7] = molecular target: T5, WT MshC (Mycolicibacterium smegmatis, UniProt A0QZY0); experiment: Pre-steady state kinetics of cysteine adenylation; type: biochemical, Mycobacterium smegmatis
T5 sequence (A0QZY0 1-412): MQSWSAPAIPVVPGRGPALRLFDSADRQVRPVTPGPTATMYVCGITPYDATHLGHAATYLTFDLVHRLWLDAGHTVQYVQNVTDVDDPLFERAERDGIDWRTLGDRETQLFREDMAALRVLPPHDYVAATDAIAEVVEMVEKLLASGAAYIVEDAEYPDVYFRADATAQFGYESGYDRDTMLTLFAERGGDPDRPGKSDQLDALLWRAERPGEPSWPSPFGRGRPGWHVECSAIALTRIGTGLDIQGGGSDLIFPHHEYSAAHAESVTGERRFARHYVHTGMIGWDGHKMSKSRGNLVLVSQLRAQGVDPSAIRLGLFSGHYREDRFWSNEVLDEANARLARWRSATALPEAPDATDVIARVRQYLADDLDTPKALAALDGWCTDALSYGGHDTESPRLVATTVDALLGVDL

MshC W227H mutant [8] = molecular target: T6, MshC W227H mutant (Mycolicibacterium smegmatis, UniProt A0QZY0, W227H)
MshC T83V mutant = MshC T83V mutant (Mycolicibacterium smegmatis, UniProt A0QZY0, T83V); type: biochemical, Mycobacterium smegmatis
WT MshC [9] = molecular target: T5, WT MshC; settings: up to 10 mM ATP; cited from earlier work
WT MshC [10] = molecular target: T5, WT MshC; experiment: Coupled spectrophotometric enzyme assay; type: biochemical, Mycobacterium smegmatis; settings: for Km: steady state, pH 7.8, 25 °C
MshC D251A mutant [11] = molecular target: T7, MshC D251A mutant (Mycolicibacterium smegmatis, UniProt A0QZY0, D251A)
MshC D251A mutant [12] = molecular target: T7, MshC D251A mutant; experiment: Tryptophan fluorescence titration of inhibitor binding; parameters: species or system Mycobacterium smegmatis; settings: fluorescence method, 0.1 μM protein, pH 7.8, 25 °C
MshC W227H mutant [13] = molecular target: T6, MshC W227H mutant; experiment: as above; parameters: species or system Mycobacterium smegmatis; settings: fluorescence method, 0.1 μM protein, pH 7.8, 25 °C
MshC H55A mutant [14] = molecular target: T2, MshC H55A mutant; experiment: as above; parameters: species or system Mycobacterium smegmatis; settings: fluorescence method, 0.1 μM protein, pH 7.8, 25 °C
MshC D251N mutant [15] = molecular target: T1, MshC D251N mutant; experiment: as above; parameters: species or system Mycobacterium smegmatis; settings: fluorescence method, 0.1 μM protein, pH 7.8, 25 °C
WT MshC [16] = molecular target: T5, WT MshC; experiment: as above; parameters: species or system Mycobacterium smegmatis; settings: fluorescence method, 0.1 μM protein, pH 7.8, 25 °C
MshC W227F mutant [17] = molecular target: T4, MshC W227F mutant; experiment: as above; parameters: species or system Mycobacterium smegmatis; settings: fluorescence method, 0.1 μM protein, pH 7.8, 25 °C
MshC T46V mutant [18] = molecular target: T3, MshC T46V mutant; experiment: as above; parameters: species or system Mycobacterium smegmatis; settings: fluorescence method, 0.1 μM protein, pH 7.8, 25 °C
MshC T46V mutant [19] = molecular target: T3, MshC T46V mutant; experiment: Pre-steady state kinetics of cysteine adenylation; type: biochemical, Mycobacterium smegmatis
MshC W227F mutant [20] = molecular target: T4, MshC W227F mutant; experiment: Pre-steady state kinetics of cysteine adenylation; type: biochemical, Mycobacterium smegmatis
MshC H55A = MshC H55A (Mycolicibacterium smegmatis, UniProt A0QZY0, H55A); experiment: Chemical rescue of enzyme activity by exogenous imidazole; type: biochemical, Mycobacterium smegmatis
WT MshC [21] = molecular target: T5, WT MshC; experiment: Effect of added imidazole on enzyme activity; type: biochemical, Mycobacterium smegmatis
[22] = read-out: Km-ATP, steady state, pH 7.8, 25 °C
[23] = read-out: Km-GlcN-Ins, at fixed saturating concentrations of ATP and cysteine
[24] = read-out: Km-cys, steady state, pH 7.8, 25 °C

Nc1ncnc2c1ncn2[C@@H]1O[C@H](COP(=O)(O)OP(=O)(O)OP(=O)(O)O)[C@@H](O)[C@H]1O [ATP]
Km (MshC D251N mutant [1]; [22]): 8900 ± 1600 µM | substrate inhibition (MshC D251N mutant [1]; up to 20 mM ATP): not observed | Kd (MshC D251N mutant [2]): 10200 ± 2800 µM | Kd (MshC H55A mutant [3]): 15000 ± 3000 µM | Km (MshC T46V mutant [4]; [22]): 1100 ± 30 µM | Km (MshC H55A mutant [5]; read-out: Km-ATP): 5200 ± 100 µM | Km (MshC W227F mutant [6]; [22]): 200 ± 50 µM | Kd (WT MshC [7]; read-out: Kd-ATP, first half reaction, fit to eq 9): 1700 ± 200 µM | Km (MshC W227H mutant [8]; [22]): 120 ± 10 µM | Km (MshC T83V mutant; [22]): 320 ± 60 µM | substrate inhibition (WT MshC [9]): no substrate inhibition | Km (WT MshC [10]; read-out: Km-ATP): 1800 ± 100 µM | ATP concentration above which enzyme activity decreases (MshC D251A mutant [11]; 2 mM cysteine, 200 μM GlcN-Ins): ~ 1.1 mM | Km (MshC D251A mutant [11]; [22]): 360 ± 11 µM

Nc1ncnc2c1ncn2[C@@H]1O[C@H](COS(=O)(=O)NC(=O)[C@@H](N)CS)[C@@H](O)[C@H]1O [CSA, 5'-O-[N-(L-cysteinyl)-sulfamonyl]adenosine, reference compound]
Ki (MshC D251N mutant [1]): 0.52 ± 0.11 µM | Kd (MshC D251A mutant [12]): 0.34 ± 0.01 µM | Ki (MshC T46V mutant [4]): 0.36 ± 0.047 µM | Ki (MshC H55A mutant [5]): 0.89 ± 0.06 µM | Kd (MshC W227H mutant [13]): 0.045 ± 0.002 µM | Ki (MshC W227F mutant [6]): 0.056 ± 0.008 µM | Kd (MshC H55A mutant [14]): 0.35 ± 0.02 µM | Kd (MshC D251N mutant [15]): 0.18 ± 0.013 µM | Kd (WT MshC [16]): 0.11 ± 0.01 µM | Ki (MshC W227H mutant [8]): 0.03 ± 0.005 µM | Kd (MshC W227F mutant [17]): 0.053 ± 0.01 µM | Ki (WT MshC [10]): 0.304 ± 0.04 µM | Ki (MshC D251A mutant [11]): 0.93 ± 0.17 µM | Kd (MshC T46V mutant [18]): 0.15 ± 0.01 µM

N[C@H]1[C@@H](OC2[C@H](O)[C@H](O)C(O)[C@H](O)[C@H]2O)O[C@H](CO)[C@@H](O)[C@@H]1O (stereo partly shown) [GlcN-Ins, glucosamine-inositol]
Km (MshC D251N mutant [1]; [23]): 100 ± 60 µM | Km (MshC T46V mutant [4]; [23]): 150 ± 80 µM | Km (MshC W227F mutant [6]; [23]): 150 ± 60 µM | Km (MshC W227H mutant [8]; [23]): 600 ± 10 µM | Km (MshC T83V mutant; [23]): 170 ± 50 µM | Km (WT MshC [10]; read-out: Km-GlcN-Ins): 160 ± 50 µM | Km (MshC D251A mutant [11]; [23]): 160 ± 10 µM

N[C@@H](CS)C(=O)O [cys, L-cysteine]
Km (MshC D251N mutant [1]; [24]): 480 ± 150 µM | Kd (MshC T46V mutant [19]): 800 ± 100 µM | Km (MshC T46V mutant [4]; [24]): 1900 ± 200 µM | Km (MshC H55A mutant [5]; read-out: Km-cys): 1100 ± 200 µM | Km (MshC W227F mutant [6]; [24]): 400 ± 100 µM | Kd (WT MshC [7]): 160 ± 30 µM | Kd (MshC W227F mutant [20]): 600 ± 100 µM | Km (MshC W227H mutant [8]; [24]): 120 ± 40 µM | Km (MshC T83V mutant; [24]): 20 ± 1 µM | Km (MshC D251A mutant [11]; [24]): 170 ± 20 µM

c1c[nH]cn1 [imidazole]
increase of kcat value (MshC H55A; 100 mM added imidazole, pH 6.75): seven-fold increase | change in enzyme activity upon addition of imidazole (MshC H55A; pH 7.8 and pH 9): no changes | effect of added imidazole on enzyme activity (WT MshC [21]): No significant activating or inhibitory effect

N[C@@H](CO)C(=O)O [serine]
activity as substrate (WT MshC [10]; tested up to 5 mM): no activity
